This assay addresses T1, mPGES-1 (Homo sapiens, UniProt O14684).
T1 construct: made in house; host or cells: E. coli
T1 sequence (O14684 1-152): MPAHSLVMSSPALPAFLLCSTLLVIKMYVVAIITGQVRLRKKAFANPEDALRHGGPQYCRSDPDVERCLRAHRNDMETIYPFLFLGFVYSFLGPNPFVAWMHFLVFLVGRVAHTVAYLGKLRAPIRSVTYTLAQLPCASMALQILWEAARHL
As to the kind of experiment: mPGES-1 enzyme assay (conversion of PGH2 to PGE2, HPLC analysis). Particulars: mPGES-1 expressed in E. coli, membrane fraction; 25 min preincubation, 60 s PGH2 reaction, room temperature. In kind it is biochemical. As for the experimental part:
In the assay mPGES-1 catalyzes the reaction where the substrate PGH2 is converted to PGE2. mPGES-1 is expressed in E. coli and the membrane fraction is dissolved in 20 mM NaPi-buffer pH 8.0 and stored at −80° C. In the assay mPGES-1 is dissolved in 0.1M KPi-buffer pH 7.35 with 2.5 mM glutathione. The stop solution consists of H2O/MeCN (7/3), containing FeCl2 (25 mM) and HCl (0.15 M). The assay is performed at room temperature in 96-well plates. Analysis of the amount of PGE2 is performed with reversed phase HPLC (Waters 2795 equipped with a 3.9×150 mm C18 column). The mobile phase consists of H2O/MeCN (7/3), containing TFA (0.056%), and absorbance is measured at 195 nm with a Waters 2487 UV-detector.
The following is added chronologically to each well: • 1. 100 μL mPGES-1 in KPi-buffer with glutathione. Total protein concentration: 0.02 mg/mL. • 2. 1 μL inhibitor in DMSO. Incubation of the plate at room temperature for 25 minutes. • 3. 4 μL of a 0.25 mM PGH2 solution. Incubation of the plate at room temperature for 60 seconds. • 4. 100 μL stop solution. • 180 μL per sample is analyzed with HPLC.
As a reminder, the IC50 is the concentration that inhibits the measured activity by half. A lower IC50 goes with greater potency in that assay. For `Cc1cc(C)cc(-c2cc(-c3nc4cc(C)ccc4o3)cc(NC(=O)c3ccccc3C(F)(F)F)c2N)c1` [Example 5, N-[2-Amino-3′,5′-dimethyl-5-(5-methylbenzoxazol-2-yl)biphenyl-3-yl]-2-trifluoromethylbenzamide], the 50% inhibitory concentration (IC50) turned out to be 130 nM.
The compound `CC(C)(C)c1ccc2oc(-c3cc(COc4cccc(Cl)c4)cc(NC(=O)c4ccccc4C(F)(F)F)c3)nc2c1` [Example 7, N-[3-(5-tert-Butylbenzoxazol-2-yl)-5-(3-chlorophenoxymethyl)phenyl]-2-trifluoromethylbenzamide] gave an IC50 of 270 nM.
The figure for `CC(C)Oc1ccc(-c2ccc3oc(-c4cc(NS(=O)(=O)c5cc(Cl)ccc5Cl)ccc4Cl)nc3c2)cc1` [Example 4, 2,5-Dichloro-N-{4-chloro-3-[5-(4-isopropoxyphenyl)benzoxazol-2-yl]phenyl}benzenesulfonamide] is 600 nM.

The record behind these values is US20100004301A1, “Benzoxazoles Useful in the Treatment of Inflammation” (priority 2006, published 2010).
